Measured values as given in patent publication US20240208992A1, “MACROCYCLES AS CFTR MODULATORS” (Idorsia Pharmaceuticals Ltd, priority 2021, published 2024).

Target: human F508del-CFTR (Homo sapiens, UniProt P13569, DEL508-508)
Experiment: F508del-CFTR cell surface expression (corrector activity), DiscoveRx ß-galactosidase complementation chemiluminescence assay in recombinant U2OS cell line;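 also: U2OS cells co-expressing ProLink-tagged F508del-CFTR and a membrane-anchored enzyme acceptor, where more surface CFTR restores β-galactosidase activity measured by chemiluminescence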
Conditions: for EC50: EC50, F508del-CFTR cell surface expression; for Emax: U2OS
[1] = U2OS cells, 16h compound incubation, geomean values
[2] = in relation to Emax of corrector lumacaftor (=100%), arithmetic mean values
[3] = in relation to the Emax of the corrector lumacaftor (=100%), U2OS cell line, 16h compound incubation, arithmetic mean values
[4] = U2OS cell line, 16h compound incubation, geomean values
[5] = U2OS cells, 16h compound incubation, geomean of several measurements
[6] = in relation to the Emax of the corrector lumacaftor (=100%), U2OS cells, 16h compound incubation, arithmetic mean

Sequence of human F508del-CFTR (P13569 with tags, fused parts or gaps DEL508-508): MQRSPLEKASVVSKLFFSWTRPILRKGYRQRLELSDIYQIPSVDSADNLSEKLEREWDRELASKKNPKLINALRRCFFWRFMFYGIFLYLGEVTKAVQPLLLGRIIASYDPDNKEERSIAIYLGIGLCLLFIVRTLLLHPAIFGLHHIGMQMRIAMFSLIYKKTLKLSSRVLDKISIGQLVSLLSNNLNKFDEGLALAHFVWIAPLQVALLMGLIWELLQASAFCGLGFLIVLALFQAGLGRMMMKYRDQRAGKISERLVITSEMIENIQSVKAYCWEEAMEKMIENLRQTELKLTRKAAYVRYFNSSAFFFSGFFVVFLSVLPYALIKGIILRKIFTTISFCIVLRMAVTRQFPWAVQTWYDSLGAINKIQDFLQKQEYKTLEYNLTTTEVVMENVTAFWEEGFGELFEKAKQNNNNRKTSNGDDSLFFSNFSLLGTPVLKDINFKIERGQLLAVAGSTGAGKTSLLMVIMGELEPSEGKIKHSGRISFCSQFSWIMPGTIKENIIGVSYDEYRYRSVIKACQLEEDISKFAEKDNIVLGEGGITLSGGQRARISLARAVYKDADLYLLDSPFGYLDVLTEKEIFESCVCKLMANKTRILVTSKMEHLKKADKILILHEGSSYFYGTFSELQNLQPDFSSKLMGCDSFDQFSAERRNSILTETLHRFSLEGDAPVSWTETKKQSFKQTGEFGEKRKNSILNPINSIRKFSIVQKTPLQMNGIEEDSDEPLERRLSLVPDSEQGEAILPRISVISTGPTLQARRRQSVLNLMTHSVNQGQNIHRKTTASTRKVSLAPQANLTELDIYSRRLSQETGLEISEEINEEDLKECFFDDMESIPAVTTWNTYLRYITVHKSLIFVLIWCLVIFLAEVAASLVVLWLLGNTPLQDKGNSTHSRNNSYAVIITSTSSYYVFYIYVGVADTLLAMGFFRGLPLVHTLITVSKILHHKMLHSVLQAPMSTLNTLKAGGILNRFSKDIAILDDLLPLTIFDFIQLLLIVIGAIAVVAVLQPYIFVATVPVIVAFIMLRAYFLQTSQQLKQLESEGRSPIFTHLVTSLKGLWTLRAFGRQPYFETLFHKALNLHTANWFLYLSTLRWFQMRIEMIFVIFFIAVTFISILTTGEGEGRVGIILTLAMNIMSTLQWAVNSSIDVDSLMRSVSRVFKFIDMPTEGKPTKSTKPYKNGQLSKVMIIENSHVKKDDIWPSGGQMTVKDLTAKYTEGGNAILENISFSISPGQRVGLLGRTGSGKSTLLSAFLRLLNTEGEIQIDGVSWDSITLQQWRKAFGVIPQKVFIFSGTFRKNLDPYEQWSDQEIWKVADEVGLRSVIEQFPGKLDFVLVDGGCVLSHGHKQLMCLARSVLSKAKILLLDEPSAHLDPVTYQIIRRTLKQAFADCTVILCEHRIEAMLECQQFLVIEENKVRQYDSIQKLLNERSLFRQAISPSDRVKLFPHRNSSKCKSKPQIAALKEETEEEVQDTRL

| EC50 [1] [nM] | Emax [2] [%] | SMILES | Emax [3] [%] | EC50 [4] [nM] | also measured |
| --- | --- | --- | --- | --- | --- |
| 1340 | 147 | Cc1cc(CCNC(=O)[C@@H]2CC(=O)N(C)[C@@H](CC(C)C)C(=O)N3CCCC[C@@H]3C(=O)N[C@@H](Cc3ccccc3)COc3cnc4ccccc4c3C(=O)N2)on1 [Example 487, (9S,13S,19aR,22S)-22-benzyl-13-isobutyl-12-methyl-N-(2-(3-methylisoxazol-5-yl)ethyl)-7,11,14,20-tetraoxo-7,8,9,10,11,12,13,14,17,18,19,19a,20,21,22,23-hexadecahydro-16H-pyrido[2′,1′:6,7][1]oxa[4,7,10,14]tetraazacycloheptadecino[17,16-c]quinoline-9-carboxamide] |  |  |  |
| 150 | 318 | CC(C)C[C@H]1C(=O)N2CCCC[C@@H]2C(=O)N[C@H](Cc2ccccc2)COc2ccc3ncc(F)cc3c2C(=O)N[C@H](C(=O)NCCc2cc(C3CC3)no2)CC(=O)N1C [Example 655, (9S,13S,19aR,22R)-22-benzyl-N-(2-(3-cyclopropylisoxazol-5-yl)ethyl)-5-fluoro-13-isobutyl-12-methyl-7,11,14,20-tetraoxo-7,8,9,10,11,12,13,14,17,18,19,19a,20,21,22,23-hexadecahydro-16H-pyrido[2′,1′:6,7][1]oxa[4,7,10,14]tetraazacycloheptadecino[16,17-f]quinoline-9-carboxamide] |  |  |  |
| 875 | 359 | COc1nc(C)cc2c1C(=O)N[C@H](C(=O)NCCc1cc(C)no1)CC(=O)N(C)[C@@H](CC(C)C)C(=O)N(C)[C@H](CC(F)F)C(=O)N[C@H](Cc1ccccc1)CO2 [Example 775, (3R,6R,9S,13S)-3-benzyl-6-(2,2-difluoroethyl)-9-isobutyl-16-methoxy-7,10,18-trimethyl-N-(2-(3-methylisoxazol-5-yl)ethyl)-5,8,11,15-tetraoxo-2,3,4,5,6,7,8,9,10,11,12,13,14,15-tetradecahydropyrido[3,4-p][1]oxa[4,7,10,14]tetraazacycloheptadecine-13-carboxamide] |  |  |  |
| 343 | 171 | CC(C)C[C@H]1C(=O)N2CCN(C3CC3)C[C@H]2C(=O)N[C@H](Cc2ccccc2)COc2cnc3ccccc3c2C(=O)N[C@H](C(=O)NCCc2nc3c(s2)CCC3)CC(=O)N1C [Example 405, (9S,13S,19aS,22R)-22-benzyl-18-cyclopropyl-N-(2-(5,6-dihydro-4H-cyclopenta[d]thiazol-2-yl)ethyl)-13-isobutyl-12-methyl-7,11,14,20-tetraoxo-7,8,9,10,11,12,13,14,17,18,19,19a,20,21,22,23-hexadecahydro-16H-pyrazino[2′,1′:6,7][1]oxa[4,7,10,14]tetraazacycloheptadecino[17,16-c]quinoline-9-carboxamide] |  |  |  |

Second part, the molecule before the results:

| SMILES | EC50 [1] [nM] | Emax [2] [%] | Emax [3] [%] | EC50 [4] [nM] | also measured |
| --- | --- | --- | --- | --- | --- |
| CC(C)C[C@H]1C(=O)N(C)CC(=O)N[C@H](Cc2ccccc2)COc2ccccc2C(=O)N[C@H](C(=O)NCCc2ccc3c(c2)OCCO3)CC(=O)N1C [Example 688, (3R,9S,13S)-3-benzyl-N-(2-(2,3-dihydrobenzo[b][1,4]dioxin-6-yl)ethyl)-9-isobutyl-7,10-dimethyl-5,8,11,15-tetraoxo-2,3,4,5,6,7,8,9,10,11,12,13,14,15-tetradecahydrobenzo[p][1]oxa[4,7,10,14]tetraazacycloheptadecine-13-carboxamide] | 458 | 104 |  |  |  |
| Cc1csc(CCNC(=O)[C@@H]2CC(=O)N(C)[C@@H](CC(C)C)C(=O)N3CCCC[C@@H]3C(=O)N[C@H](Cc3ccccc3)COc3ccc4ncn(C)c4c3C(=O)N2)n1 (racemic) [Example 23, (8RS,12S,18aR,21R)-21-benzyl-12-isobutyl-5,11-dimethyl-N-(2-(4-methylthiazol-2-yl)ethyl)-6,10,13,19-tetraoxo-6,7,8,9,10,11,12,13,16,17,18,18a,19,20,21,22-hexadecahydro-5H,15H-imidazo[4′,5′:5,6]benzo[1,2-p]pyrido[2,1-f][1]oxa[4,7,10,14]tetraazacycloheptadecine-8-carboxamide] |  |  | 115 |  |  |
| CC(C)C[C@H]1C(=O)N(CCC2CCCCC2)CC(=O)N[C@H](Cc2ccccc2)COc2cc3ccccc3cc2C(=O)N[C@H](C(=O)NCCc2ccc3c(c2)OCO3)CC(=O)N1C [Example 250, (3R,9S,13S)-N-(2-(benzo[d][1,3]dioxol-5-yl)ethyl)-3-benzyl-7-(2-cyclohexylethyl)-9-isobutyl-10-methyl-5,8,11,15-tetraoxo-2,3,4,5,6,7,8,9,10,11,12,13,14,15-tetradecahydronaphtho[2,3-p][1]oxa[4,7,10,14]tetraazacycloheptadecine-13-carboxamide] |  |  | 160 | 86 |  |
| COc1cccc2c1C(=O)N[C@H](C(=O)NCCc1ccc3c(c1)OCCO3)CC(=O)N(C)[C@@H](CC(C)C)C(=O)N(CCC1CCCCC1)CC(=O)N[C@H](Cc1ccccc1)CO2 [Example 149, (3R,9S,13S)-3-benzyl-7-(2-cyclohexylethyl)-N-(2-(2,3-dihydrobenzo[b][1,4]dioxin-6-yl)ethyl)-9-isobutyl-16-methoxy-10-methyl-5,8,11,15-tetraoxo-2,3,4,5,6,7,8,9,10,11,12,13,14,15-tetradecahydrobenzo[p][1]oxa[4,7,10,14]tetraazacycloheptadecine-13-carboxamide] |  |  | 259 | 191 |  |
| COc1cccc(CCNC(=O)[C@@H]2CC(=O)N(C)[C@@H](CC(C)C)C(=O)N(CCC3CCCCC3)CC(=O)N[C@H](Cc3ccccc3)COc3cc(OC)cc(OC)c3C(=O)N2)c1 [Example 256, (3R,9S,13S)-3-benzyl-7-(2-cyclohexylethyl)-9-isobutyl-16,18-dimethoxy-N-(3-methoxyphenethyl)-10-methyl-5,8,11,15-tetraoxo-2,3,4,5,6,7,8,9,10,11,12,13,14,15-tetradecahydrobenzo[p][1]oxa[4,7,10,14]tetraazacycloheptadecine-13-carboxamide] |  |  | 319 | 147 |  |
| Cc1cccc(CCNC(=O)[C@@H]2CC(=O)N(C)[C@@H](CC(C)C)C(=O)N3CCCC[C@@H]3C(=O)N[C@H](Cc3ccccc3)COc3cnc4ccccc4c3C(=O)N2)c1 [Example 96, (9S,13S,19aR,22R)-22-benzyl-13-isobutyl-12-methyl-N-(3-methylphenethyl)-7,11,14,20-tetraoxo-7,8,9,10,11,12,13,14,17,18,19,19a,20,21,22,23-hexadecahydro-16H-pyrido[2′,1′:6,7][1]oxa[4,7,10,14]tetraazacycloheptadecino[17,16-c]quinoline-9-carboxamide] |  |  | 206 | 425 |  |
| CC(C)C[C@H]1C(=O)N(CCC(C)(C)C)CC(=O)N[C@H](Cc2ccccc2)COc2cc3c(cc2C(=O)N[C@H](C(=O)NCCc2ccc4c(c2)OCO4)CC(=O)N1C)OCO3 (racemic) [Example 1, (7R,13S,17RS)-N-(2-(benzo[d][1,3]dioxol-5-yl)ethyl)-7-benzyl-11-(3,3-dimethylbutyl)-13-isobutyl-14-methyl-9,12,15,19-tetraoxo-6,7,8,9,10,11,12,13,14,15,16,17,18,19-tetradecahydro-[1,3]dioxolo[4′,5′:4,5]benzo[1,2-p][1]oxa[4,7,10,14]tetraazacycloheptadecine-17-carboxamide] |  |  | 105 | 56 |  |
| COc1cc(CCNC(=O)[C@@H]2CC(=O)N(C)[C@@H](CC(C)C)C(=O)N(C)[C@@H](Cc3nc(C(F)(F)F)no3)C(=O)N[C@H](Cc3ccccc3)COc3cnc4ccc(F)cc4c3C(=O)N2)on1 [Example 810, (3S,7S,10S,13R)-13-benzyl-20-fluoro-7-isobutyl-N-(2-(3-methoxyisoxazol-5-yl)ethyl)-6,9-dimethyl-1,5,8,11-tetraoxo-10-((3-(trifluoromethyl)-1,2,4-oxadiazol-5-yl)methyl)-1,2,3,4,5,6,7,8,9,10,11,12,13,14-tetradecahydro-[1]oxa[4,7,10,14]tetraazacycloheptadecino[17,16-c]quinoline-3-carboxamide] |  |  |  |  | EC50 [5]: 161 nM; Emax [6]: 285% |
| Cc1nc2ccc3c(c2o1)C(=O)N[C@H](C(=O)NCCc1cccc(OC(F)F)c1)CC(=O)N(C)[C@@H](CC(C)C)C(=O)N1CCN(CC2CC2)C[C@@H]1C(=O)N[C@H](Cc1ccccc1)CO3 [Example 426, (8S,12S,18aR,21R)-21-benzyl-17-(cyclopropylmethyl)-N-(3-(difluoromethoxy)phenethyl)-12-isobutyl-4,11-dimethyl-6,10,13,19-tetraoxo-6,7,8,9,10,11,12,13,16,17,18,18a,19,20,21,22-hexadecahydro-15H-oxazolo[4′,5′:5,6]benzo[1,2-p]pyrazino[2,1-f][1]oxa[4,7,10,14]tetraazacycloheptadecine-8-carboxamide] | 269 | 217 |  |  |  |
| COc1cccc(CCNC(=O)[C@@H]2CC(=O)N(C)[C@@H](CC(C)C)C(=O)N(C)[C@@H](C)C(=O)N[C@H](Cc3ccccc3)COc3cnc4ccccc4c3C(=O)N2)c1 [Example 572, (3S,7S,10S,13R)-13-benzyl-7-isobutyl-N-(3-methoxyphenethyl)-6,9,10-trimethyl-1,5,8,11-tetraoxo-1,2,3,4,5,6,7,8,9,10,11,12,13,14-tetradecahydro-[1]oxa[4,7,10,14]tetraazacycloheptadecino[17,16-c]quinoline-3-carboxamide] | 701 | 200 |  |  |  |
| COc1cc(CCNC(=O)[C@@H]2CC(=O)N(C)[C@@H](CC(C)C)C(=O)N(C)[C@H](Cc3nc(C(F)(F)F)no3)C(=O)N[C@H](Cc3ccccc3)COc3cc(C)c4ncccc4c3C(=O)N2)on1 [Example 909, (3S,7S,10R,13R)-13-benzyl-7-isobutyl-N-(2-(3-methoxyisoxazol-5-yl)ethyl)-6,9,17-trimethyl-1,5,8,11-tetraoxo-10-((3-(trifluoromethyl)-1,2,4-oxadiazol-5-yl)methyl)-1,2,3,4,5,6,7,8,9,10,11,12,13,14-tetradecahydro-[1]oxa[4,7,10,14]tetraazacycloheptadecino[16,17-f]quinoline-3-carboxamide] |  |  |  |  | EC50 [5]: 17 nM; Emax [6]: 430% |
